Measured values reported in patent US12077503B2, “Substituted cyclic amides and their use as herbicides” (FMC CORPORATION, priority 2015, dated 2024).

How the values were obtained:
Format in all cases: in vivo
[1] = test system: sedge, umbrella (small-flower umbrella sedge, Cyperus difformis); experiment: Test B flooded paddy test; settings: Cyperus difformis, 250 g ai/ha, Flood; 0 to 100 scale where 0 is no effect and 100 is complete control; read-out: Sedge, Umbrella plant response rating
Summary of the method: (§1)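 Percent control, visually estimated after 13–15 d in the greenhouse on a 0–100 basis, compares treated pots with untreated ones; compound was put into paddy water 3 cm above the soil when plants had two leaves.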

[2] = test system: barnyardgrass (Echinochloa crus-galli); experiment: Test B flooded paddy test; settings: Echinochloa crus-galli, 250 g ai/ha, Flood; 0 to 100 scale where 0 is no effect and 100 is complete control; read-out: Barnyardgrass plant response rating
Summary of the method: as §1

[3] = test system: ducksalad (Heteranthera limosa); experiment: Test B flooded paddy test; settings: Heteranthera limosa, 250 g ai/ha, Flood; 0 to 100 scale where 0 is no effect and 100 is complete control; read-out: Ducksalad plant response rating
Summary of the method: as §1

rice (Oryra sativa) = experiment: Test B flooded paddy test; settings: Oryza sativa, 250 g ai/ha, Flood; 0 to 100 scale where 0 is no effect and 100 is complete control; read-out: Rice plant response rating
Summary of the method: as §1

Kochia (Kochia scoparia) [4] = experiment: Test A preemergence; settings: Bassia scoparia, pre-emergence, 240 h, 0 to 100 scale where 0 is no effect and 100 is complete control, read-out: Kochia plant response rating
Summary of the method: (§2)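 Each rating is a visual injury score from 0 to 100 given about 10 d after treatment, judged against untreated controls kept alongside in the greenhouse. In loam soil–sand blend, seeds got a preemergence directed soil spray, while postemergence plants were 2 to 10 cm tall at spraying.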

[5] = test system: pigweed (Amaranthus retroflexus); experiment: Test A preemergence; settings: Amaranthus retroflexus, pre-emergence, 240 h, 0 to 100 scale where 0 is no effect and 100 is complete control, read-out: Pigweed plant response rating
[6] = test system: barnyardgrass (Echinochloa crus-galli); experiment: Test A preemergence; settings: Echinochloa crus-galli, pre-emergence, 240 h, 0 to 100 scale where 0 is no effect and 100 is complete control, read-out: Barnyardgrass plant response rating
Summary of the method: as §2

[7] = test system: giant foxtail (Setaria faberii); experiment: Test A preemergence; settings: Setaria faberi, pre-emergence, 240 h, 0 to 100 scale where 0 is no effect and 100 is complete control, read-out: Foxtail, Giant plant response rating
Summary of the method: as §2

[8] = test system: ragweed (common ragweed, Ambrosia elatior); experiment: Test A preemergence; settings: Ambrosia artemisiifolia, pre-emergence, 240 h, 0 to 100 scale where 0 is no effect and 100 is complete control, read-out: Ragweed plant response rating
Summary of the method: as §2

[9] = test system: ryegrass, Italian (Italian ryegrass, Lolium multiflorum); experiment: Test A preemergence; settings: Lolium multiflorum, pre-emergence, 240 h, 0 to 100 scale where 0 is no effect and 100 is complete control, read-out: Ryegrass, Italian plant response rating
Summary of the method: as §2

[10] = test system: wheat (Triticum aestivum); experiment: Test A postemergence; settings: Triticum aestivum, post-emergence, 240 h, Postemergence, 31 g ai/ha; 0 is no effect, 100 is complete control; read-out: Wheat plant response rating (0 to 100 scale)
Summary of the method: as §2

corn (Zea mays) = experiment: Test A postemergence; settings: Zea mays, post-emergence, 240 h, read-out: Corn plant response rating (0 to 100 scale)
Summary of the method: as §2

[11] = test system: Galium (catchweed bedstraw, Galium aparine); experiment: Test A postemergence; settings: Galium, post-emergence, 240 h, read-out: Galium plant response rating (0 to 100 scale)
Summary of the method: as §2

Kochia (Kochia scoparia) [12] = experiment: Test A postemergence; settings: Bassia scoparia, post-emergence, 240 h, read-out: Kochia plant response rating (0 to 100 scale)
Summary of the method: as §2

[13] = test system: pigweed (Amaranthus retroflexus); experiment: Test A postemergence; settings: Amaranthus retroflexus, post-emergence, 240 h, read-out: Pigweed plant response rating (0 to 100 scale)
Summary of the method: as §2

[14] = test system: barnyardgrass (Echinochloa crus-galli); experiment: Test A postemergence; settings: Echinochloa crus-galli, post-emergence, 240 h, read-out: Barnyardgrass plant response rating (0 to 100 scale)
Summary of the method: as §2

[15] = test system: giant foxtail (Setaria faberii); experiment: Test A postemergence; settings: Setaria faberi, post-emergence, 240 h, read-out: Foxtail, Giant plant response rating (0 to 100 scale)
Summary of the method: as §2

[16] = test system: ragweed (common ragweed, Ambrosia elatior); experiment: Test A postemergence; settings: Ambrosia artemisiifolia, post-emergence, 240 h, read-out: Ragweed plant response rating (0 to 100 scale)
Summary of the method: as §2

[17] = test system: blackgrass (Alopecurus myosuroides); experiment: Test A postemergence; settings: Alopecurus myosuroides, post-emergence, 240 h, read-out: Blackgrass plant response rating (0 to 100 scale)
Summary of the method: as §2

[18] = test system: ryegrass, Italian (Italian ryegrass, Lolium multiflorum); experiment: Test A postemergence; settings: Lolium multiflorum, post-emergence, 240 h, read-out: Ryegrass, Italian plant response rating (0 to 100 scale)
Summary of the method: as §2

[19] = 125 g ai/ha, preemergence, visual injury rating, approximately 10 d
[20] = 125 g ai/ha, postemergence, visual injury vs untreated controls after approx. 10 d, 0 = no effect, 100 = complete control
[21] = Postemergence, 31 g ai/ha, 0 is no effect, 100 is complete control

**Q.** Which pest or weed control at 250 g/ha [1] does the source give for `CN1C[C@H](c2ccc(Cl)c(F)c2)[C@@H](C(=O)Nc2cccc(F)c2F)C1=O` [Compound 1265] here?
**A.** 0%

**Q.** What about the pest or weed control at 250 g/ha [2] of the same compound?
**A.** 60%

**Q.** And the pest or weed control at 250 g/ha [3]?
**A.** 90%

**Q.** What about the pest or weed control at 250 g/ha (rice (Oryra sativa)) of the same compound?
**A.** 45%

**Q.** What about the pest or weed control at 31 g/ha (Kochia (Kochia scoparia) [4]; 31 g ai/ha, Preemergence) of the same compound?
**A.** 30%

**Q.** What about the pest or weed control at 125 g/ha (Kochia (Kochia scoparia) [4]; [19]) of the same compound?
**A.** 70%

**Q.** What about the pest or weed control at 31 g/ha ([5]; 31 g ai/ha, Preemergence) of the same compound?
**A.** 0%

**Q.** What about the pest or weed control at 125 g/ha [5, 19] of the same compound?
**A.** 80%

**Q.** And the pest or weed control at 31 g/ha ([6]; 31 g ai/ha, Preemergence)?
**A.** 80%

**Q.** And the pest or weed control at 125 g/ha [6, 19]?
**A.** 90%

**Q.** What about the pest or weed control at 31 g/ha ([7]; 31 g ai/ha, Preemergence) of the same compound?
**A.** 90%

**Q.** And the pest or weed control at 125 g/ha [7, 19]?
**A.** 90%

**Q.** And the pest or weed control at 31 g/ha ([8]; 31 g ai/ha, Preemergence)?
**A.** 0%

**Q.** What about the pest or weed control at 125 g/ha [8, 19] of the same compound?
**A.** 0%

**Q.** And the pest or weed control at 31 g/ha ([9]; 31 g ai/ha, Preemergence)?
**A.** 50%

**Q.** And the pest or weed control at 125 g/ha [9, 19]?
**A.** 60%

**Q.** And the plant injury at 31 g/ha [10]?
**A.** 0%

**Q.** And the plant injury at 125 g/ha (corn (Zea mays); [20])?
**A.** 70%

**Q.** And the plant injury at 31 g/ha (corn (Zea mays); [21])?
**A.** 30%

**Q.** And the pest or weed control at 125 g/ha [11, 20]?
**A.** 60%

**Q.** What about the pest or weed control at 31 g/ha [11, 21] of the same compound?
**A.** 60%

**Q.** What about the pest or weed control at 125 g/ha (Kochia (Kochia scoparia) [12]; [20]) of the same compound?
**A.** 70%

**Q.** And the pest or weed control at 31 g/ha (Kochia (Kochia scoparia) [12]; [21])?
**A.** 50%

**Q.** And the pest or weed control at 125 g/ha [13, 20]?
**A.** 70%

**Q.** What about the pest or weed control at 31 g/ha [13, 21] of the same compound?
**A.** 30%

**Q.** And the pest or weed control at 125 g/ha [14, 20]?
**A.** 90%

**Q.** What about the pest or weed control at 31 g/ha [14, 21] of the same compound?
**A.** 80%

**Q.** What about the pest or weed control at 125 g/ha [15, 20] of the same compound?
**A.** 80%

**Q.** And the pest or weed control at 31 g/ha [15, 21]?
**A.** 80%

**Q.** What about the pest or weed control at 125 g/ha [16, 20] of the same compound?
**A.** 30%

**Q.** What about the pest or weed control at 31 g/ha [16, 21] of the same compound?
**A.** 0%

**Q.** What about the pest or weed control at 125 g/ha [17, 20] of the same compound?
**A.** 50%

**Q.** And the pest or weed control at 31 g/ha [17, 21]?
**A.** 0%

**Q.** What about the pest or weed control at 125 g/ha [18, 20] of the same compound?
**A.** 30%

**Q.** And the pest or weed control at 31 g/ha [18, 21]?
**A.** 0%
